Assay results: patent US6680025B2, “Device and method for photoactivation” (Cerus Corporation, priority 1989, dated 2004)

System: HIV 115-mer PCR product carryover
Assay: Post-amplification sterilization, isopsoralen added after amplification (Example 54)
Type: biochemical
Conditions: for sterilization of carryover: AMDMIP 100 μg/ml, PTI 15 minutes, 10^6 copies
Source text: In this embodiment, the method of sterilization comprises: 1) providing PCR reagents, 2) providing template, 3) providing polymerase, 4) mixing PCR reagents, template, and polymerase to initiate PCR, 5) cycling to provide PCR product, 6) providing isopsoralen, 7) adding isopsoralen to PCR product, and 8) irradiating PCR product.
For the purposes of this determination, the steps of the following experiment include (see FIG. 40): a) preparing template, b) providing template, c) providing PCR reagents, d) providing polymerase, e) mixing PCR reagents, template, and polymerase to initiate PCR, f) cycling to provide PCR product, g) carrying over of PCR product into new tubes, h) providing isopsoralen, i) adding isopsoralen to the carryover, j) irradiating, k) addition of new PCR reagents, and 1) subsequent PCR.
Steps a), b), c), d), e), and f). PCR product was provided as described earlier.
Step g) Carrying over of PCR product. Aliquots of PCR product were added into new reaction tubes at 10^6 copies per tube.
Step h) Providing Isopsoralen. AMDMIP was synthesized as described and diluted.
Step i) Addition of Isopsoralen ANDDMIP (100 μg/ml, approximately 10^−4 M) was added reaction vessels containing carryover.
Step i) Irradiation. Irradiation was performed on the PTI device to avoid photoproduct. Three of the new reaction tubes were irradiated while the others were left unirradiated as controls. Irradiation was for 15 minutes at RT as above.
Step k) PCR Reagents and Tag Polymerase Were Added to Appropriate Concentrations. The final volume was increased two fold such that AMDMIP photoproducts were at 50 μg/ml.
Step l) Subsequent PCR. Amplification was performed, in closed reaction vessels using primer pair SK-38/39 for 20, 25 or 30 cycles, using the temperature profile for cycling described above in the presence of α-^32P-dCTP.

SMILES: Cc1oc2ccc3c(C)cc(=O)oc3c2c1CN [AMDMIP, 4′-Aminomethyl-4,5′-dimethylisopsoralen]
- reamplification of carryover with AMDMIP, not light-treated (20, 25, 30 cycles): show amplification
- sterilization of carryover (20 cycles): sterilization appears to be complete
- sterilization of carryover (25 cycles): reduced relative to controls
- sterilization of carryover (30 cycles): no significant sterilization is observed
